Values quoted from earlier work in patent publication US20140127235A1, “TARGETING HK alpha FOR CONTROLLING BLOOD PRESSURE AND REGULATING ELECTROLYTE BALANCE” (UNIVERSITY OF FLORIDA RESEARCH FOUNDATION, INC., priority 2011, published 2014).

How the values were obtained:
[1] = target: HKα1-containing H^+,K^+-ATPases (Homo sapiens, UniProt P20648); conditions: subsequent studies; cited from earlier work
H^+,K^+-ATPase = conditions: rats, seven days low, normal or high aldosterone levels, normal and high K+ diets; cited from earlier work
HKa2 mRNA = conditions: progesterone alone (Elabida et al., 2011); cited from earlier work

HKα1-containing H^+,K^+-ATPases, sequence (P20648 whole entry): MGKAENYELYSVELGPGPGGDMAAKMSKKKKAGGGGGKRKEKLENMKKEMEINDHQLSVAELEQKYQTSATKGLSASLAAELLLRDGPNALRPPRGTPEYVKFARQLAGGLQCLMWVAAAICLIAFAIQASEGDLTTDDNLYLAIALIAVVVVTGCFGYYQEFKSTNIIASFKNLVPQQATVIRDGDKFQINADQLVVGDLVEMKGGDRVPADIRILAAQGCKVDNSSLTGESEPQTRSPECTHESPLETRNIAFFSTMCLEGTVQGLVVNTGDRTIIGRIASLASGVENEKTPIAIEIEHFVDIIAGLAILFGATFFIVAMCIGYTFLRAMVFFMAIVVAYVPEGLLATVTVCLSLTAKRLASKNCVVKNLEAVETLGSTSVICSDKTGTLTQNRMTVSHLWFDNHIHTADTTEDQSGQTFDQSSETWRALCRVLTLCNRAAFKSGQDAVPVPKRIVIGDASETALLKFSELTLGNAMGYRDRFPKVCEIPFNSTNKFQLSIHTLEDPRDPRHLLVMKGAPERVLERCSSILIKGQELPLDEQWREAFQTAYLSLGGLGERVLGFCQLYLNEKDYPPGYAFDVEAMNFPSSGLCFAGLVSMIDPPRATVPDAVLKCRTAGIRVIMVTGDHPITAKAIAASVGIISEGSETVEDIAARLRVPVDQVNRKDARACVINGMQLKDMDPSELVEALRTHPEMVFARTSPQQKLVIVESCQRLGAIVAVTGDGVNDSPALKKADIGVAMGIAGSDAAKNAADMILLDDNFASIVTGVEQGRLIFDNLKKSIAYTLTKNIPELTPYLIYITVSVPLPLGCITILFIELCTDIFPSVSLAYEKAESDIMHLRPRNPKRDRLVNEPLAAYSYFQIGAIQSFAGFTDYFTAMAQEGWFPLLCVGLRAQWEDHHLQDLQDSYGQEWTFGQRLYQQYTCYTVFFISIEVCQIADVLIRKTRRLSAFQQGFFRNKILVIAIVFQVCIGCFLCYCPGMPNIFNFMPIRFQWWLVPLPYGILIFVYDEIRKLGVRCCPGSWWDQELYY
HKα1-containing H^+,K^+-ATPases, sequence (P51164 whole entry partner): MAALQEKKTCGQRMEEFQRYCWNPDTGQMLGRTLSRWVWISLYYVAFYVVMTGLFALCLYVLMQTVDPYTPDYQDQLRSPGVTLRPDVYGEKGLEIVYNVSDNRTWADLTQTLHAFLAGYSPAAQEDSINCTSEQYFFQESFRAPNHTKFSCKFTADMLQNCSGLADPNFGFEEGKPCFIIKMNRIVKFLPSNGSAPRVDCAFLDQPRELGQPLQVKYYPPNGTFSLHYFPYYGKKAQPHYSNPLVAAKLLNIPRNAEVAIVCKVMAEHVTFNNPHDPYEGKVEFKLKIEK

Cc1nc2c(OCc3ccccc3)cccn2c1CC#N [Schering 28080]
H+,K+-ATPase isoform inhibited [1]: only inhibit the HKα1-containing H^+,K^+-ATPases

C[C@]12CCC(=O)C=C1CC[C@@H]1[C@@H]2[C@@H](O)C[C@]2(C=O)[C@@H](C(=O)CO)CC[C@@H]12 [aldosterone]
effect on Schering 28080-sensitive ATPase activity (H^+,K^+-ATPase): did not significantly affect

CC(=O)[C@H]1CC[C@H]2[C@@H]3CCC4=CC(=O)CC[C@]4(C)[C@H]3CC[C@]12C [progesterone]
effect on renal HKa2 mRNA expression (HKa2 mRNA): stimulated
